Experimental data reported in patent publication US20250326639A1, “METHOD FOR PRODUCING HYDROGEN PEROXIDE” (ARKEMA FRANCE, priority 2022, published 2025).

Key:
[1] = Solubility in water by coulometric Karl Fischer titration, ASTM-D6304; type: physicochemical
Source text: The solubility in water may be determined by coulometric Karl Fischer titration in accordance with the standard ASTM-D6304.

[2] = Specific gravity by hydrometer, ASTM-D891; type: physicochemical
Source text: The specific gravity may be determined by means of a hydrometer in accordance with the standard ASTM-D891.

[3] = Flash point, closed-cup apparatus, ASTM-D3278; type: physicochemical
Source text: The flash point may be determined using a closed-cup apparatus in accordance with the standard ASTM-D3278.

[4] = Vapour pressure by ebulliometry, ASTM-E1719; type: physicochemical
Source text: The vapour pressure may be determined by ebulliometry in accordance with the standard ASTM-E1719.

[5] = Solubility of 2-ethyltetrahydroanthrahydroquinone in tested solvents (protocol of the patent); settings: 2-THEAHQ dissolved in the tested lactone solvent; hydrogenation of parent quinone, cooled until precipitation, liquid chromatography
Experimental: In the following examples, the solubilities of 2-ethyltetrahydroanthrahydroquinone (2-THEAHQ) were tested in different solvents in accordance with the protocols detailed below.
For 2-ethyltetrahydroanthrahydroquinone, the solubilities were determined by dissolving a weighed amount of the parent quinone in the tested solvent. After the addition of a Pd-based catalyst to the solution, the mixture was hydrogenated until hydrogen absorption ceases, and then cooled until precipitation occurs.
The samples were analysed by liquid chromatography. Reference mixtures were prepared for calibration.

Row | SMILES | Solubility in water (mg/kg) [1] | Specific gravity [2] | Flash point (° C.) [3] | Vapour pressure (Pa) [4] | Solubility in water [1] | Solubility of 2-THEAHQ [5]
1 | O=C1CCCO1 [γ-butyrolactone] | 484.3 10^3 mg/kg | 1.136 | 97 °C | 87 Pa | – | –
2 | CC1CC(=O)O1 (stereo not drawn) [β-butyrolactone] | 158.9 10^3 mg/kg | 1.076 | 74 °C | 212 Pa | – | –
3 | CCCCCCCC1CCCC(=O)O1 (stereo not drawn) [δ-dodecalactone] | – | 0.962 | 168 °C | 0.05 Pa | 1113 mg/kg | 276 mg/mL
4 | O=C1CCO1 [β-propiolactone] | – | 1.137 | 70 °C | 418 Pa | – | 70 mg/mL
5 | CCCCC1CCC(=O)O1 (stereo not drawn) [γ-octalactone] | – | – | – | – | – | 281 mg/mL
